The text below walks through data of US20210236507A1, “METHODS AND PHARMACEUTICAL COMPOSITIONS FOR PREVENTING RELAPSE IN A PERSON WITH AN ADDICTION USING BETA ADRENERGIC RECEPTOR ANTAGONIST AND MUSCARINIC RECEPTOR ANTAGONIST COMBINATIONS” (MAGNOLIA CNS, LLC, priority 2020, published 2021).

Data set [1] deals with muscarinic acetylcholine receptors (all five human receptor subtypes). As to conditions: cited from earlier work.
The subject of a further data set is humans. The data set can be described thus: Taste and mouth paresthesia of dose forms noted in humans during development. As to conditions: sublingual/liquid/solid dose forms. In kind it is in vivo, human. From the text: The pharmaceutical compositions of the present invention, when intended for sublingual, buccal, and/or oral delivery, may benefit from taste-masking with natural and/or artificial flavors and/or sweeteners (e.g., mannitol, sucralose, monosaccharides, and disaccharides). Mouth paresthesia (numbness) can occur with propranolol HCl as a perceived adverse effect.
Alternative beta blockers may be chosen that lack these undesirable properties, such as atenolol.
Tablets are formed by compression of the powder using a mechanical tablet press. For instance tablets without coatings are prepared with composition #11 at about 70 mg each, for use as sublingual or oral dose forms. At this size of tablet an adult dose would deliver 20 mg propranolol HC and 0.5 mg scopolamine HBr. Alternatively, tablets may be produced using a triturate tablet mold (e.g., from the vendor PCCA), wherein the triturated powder is moistened with 95% ethanol and then the wells are filled with the moistened composition, extruded from the wells, and dried. The intra-oral mucosal (e.g., sublingual) tablets dissolve rapidly under the tongue, for instance in less than one minute (e.g., solid dose forms #13 and 14). […] Sublingual (or buccal) tablets may be preferred for rapid disintegration, dissolution, absorption and increased bioavailability via the mucosal route. A sublingual tablet of #23 weighing ca. 82 mg delivers a dose of ca. 25 mg atenolol and ca. 0.25 mg of scopolamine HBr. Tablets may also be ingested orally, although it is rational to presume that absorption will be somewhat delayed and bioavailability will be somewhat reduced with many APIs, relative to the mucosal route.

One may read the Ki as a measure of affinity in units of concentration, obtained from inhibition or displacement.

“Also recorded” adds a separate entry of the source. Structures can show the parent of a compound that is named as a salt.

As for `CN1[C@@H]2C[C@@H](OC(=O)[C@H](CO)c3ccccc3)C[C@H]1[C@@H]1O[C@@H]12` [Scopolamine], the Ki in data set [1] is 0.00034 to 0.053 µM.
For `CC(C)NCC(O)COc1cccc2ccccc12` (stereo not drawn) [Propranolol HCl], the mouth/tongue paresthesia result in the data set on humans (HCl) is given as “delayed paresthesia of the tongue”; in the data set with humans (listed as propranolol HCl, HCl), “produces mouth paresthesia”; with humans (listed as propranolol, HCl), “Paresthesia”. The taste entry in the data set on humans (HCl) is ““acidic” and “medicine” taste”; with humans (listed as propranolol HCl, HCl), ““acidic” and “medicine” taste”; in the data set on humans (listed as propranolol, HCl), “undesirable taste”.
With `CC(C)NCC(O)COc1ccc(CC(N)=O)cc1` (stereo not drawn) [atenolol], in the data set with humans, the mouth/tongue paresthesia result is “neither property was observed; also recorded: lacked these undesirable characteristics” and the taste entry is “neither property was observed; also recorded: lacked these undesirable characteristics”.
